Source: patent publication US20170112791A1, “SOLID FORMULATIONS CONTAINING OMEGA-3 AND RESVERATROL” (SIGMA-TAU INDUSTRIE FARMACEUTICHE RIUNITE S.P.A., priority 2014, published 2017)

Experiments:
[1] = Stability after autoxidation induced by radiation (light, 24 hours); type: physicochemical; conditions: initial tests (Tables 2 and 3: radiation and high temperature)
Experimental: (§1) The HPLC Analysis was the analysis performed in order to evaluate the stability of the formulations. It was performed using a Column Symmetry C-18 4.6×150 mm, a solution of CH3CN/CH3OH/H2O 45/45/10 as eluent, a flow of 1 ml/min and a Mass spectrometry Detector. The percent amount of EPA and DHA detected are expressed as % by weight. Other stability tests were also performed:
Stability analysis after autoxidation induced by radiation and by high temperature was performed according to the following procedure: • Autoxidation induced by radiation: an amount of 100 mg of the formulation is dispersed in a 5 cm diameter Petri dish, which is placed at a distance of 12 cm from the light source and exposed to light for 24 hours. The light source is constituted by a 13 W lamp with an emission spectrum of from 300 to 640 nm, with peaks at: 440, 490, 540, 590 and 610 nm. The test is carried out at 22° C. at 60% RH • autoxidation induced by high temperature: an amount of 100 mg of the formulation is placed in an amber container and put in a stove at 60° C. for 1 month

[2] = Stability analysis of solid formulations on storage (HPLC recovery of EPA and DHA); type: physicochemical
Experimental: The formulations were divided into 3 groups and left respectively for 3 and 6 months at 25° C. at 60% RH (relative humidity), for 3 and 6 months at 30° C. at 60% RH or for 3 and 6 months at 40° C. at 70% RH.
as §1
n-3 PUFA were added to Neusilin U.S.-2 in small portions, manually mixing up to obtain a homogeneous solid. Stability tests are carried out at 25° C. at 60% RH, 30° C. at 60% RH and 40° C. at 70% RH as described above for 1, 3 and 6 months.

antioxidant power with respect of that of α-tocopherol ([2]; from recovery after 3 months at 40° C., 1% antioxidant) | SMILES | improvement of stability of EPA and DHA in the initial tests [1] | ability to maintain stable solid formulations containing omega-3 for longer periods ([2]; data of Table 4, 3 months)
– | Cc1c(C)c2c(c(C)c1O)CC[C@@](C)(CCC[C@H](C)CCC[C@H](C)CCCC(C)C)O2 [α-tocopherol] | able to improve the stability | –
– | COC1=C(OC)C(=O)C(C/C=C(\C)CC/C=C(\C)CC/C=C(\C)CC/C=C(\C)CC/C=C(\C)CC/C=C(\C)CC/C=C(\C)CC/C=C(\C)CC/C=C(\C)CCC=C(C)C)=C(C)C1=O [Coenzyme Q10] | able to improve the stability | –
twice | Oc1ccc(/C=C/c2cc(O)cc(O)c2)cc1 [Resveratrol, 3,5,4′-trihydroxy-trans-stilbene] | able to improve the stability | the only natural antioxidant able to maintain stable solid formulations containing omega-3 for longer periods
– | CCCCCCCCCCCCCCCC(=O)OC[C@H](O)[C@H]1OC(=O)C(O)=C1O [Ascorbyl palmitate, ascorbyl palmitate] | able to improve the stability | –
